# Data reported in US20130158098A1, “Alkenyl Substituted Cycloaliphatic Compounds as Chemical Inducers of Proximity” (priority 2010, published 2013).
# “Also recorded” adds a separate entry of the source.
# How the values were obtained:
# [1] = test system: T cells isolated from spleens of C57BL/6J mice; test: Lymphocyte proliferation assay; format: cell-based, mouse; conditions: anti-CD3 and anti-CD28 stimulation, 72 hours
# Description: Naïve T cells were isolated from spleens of C57BL/6J mice with MACS T cell isolation kit (Miltenyi Biotec). Isolated T cells were stimulated for 72 hours at 37° C. with plate-bound monoclonal antibodies against CD3 (10 μg/ml) and CD28 (2 μg/ml) before cell count measurements.
# [2] = target: T1, VP16-PYLcs and Gal4 DBD-ABIcs (Arabidopsis thaliana, UniProt Q8VZS8); test: ABA-induced luciferase activation (ABA-activator cassette + UAS-luciferase reporter); format: cell-based
# T1 construct: HA (from the reverse primer); expressed in transfected cells; host or cells: CHO; also HEK 293/293T, NIH3T3, COS7, B35, Jurkat, E14, TC1, MEF
# T1 sequence (Q8VZS8 33-209): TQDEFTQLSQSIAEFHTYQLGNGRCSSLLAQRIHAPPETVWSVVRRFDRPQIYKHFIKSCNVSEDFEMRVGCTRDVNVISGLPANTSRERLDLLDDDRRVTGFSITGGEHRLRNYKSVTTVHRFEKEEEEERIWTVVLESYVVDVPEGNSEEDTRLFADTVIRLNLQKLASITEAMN
# T1 sequence (P49597 126-423 partner): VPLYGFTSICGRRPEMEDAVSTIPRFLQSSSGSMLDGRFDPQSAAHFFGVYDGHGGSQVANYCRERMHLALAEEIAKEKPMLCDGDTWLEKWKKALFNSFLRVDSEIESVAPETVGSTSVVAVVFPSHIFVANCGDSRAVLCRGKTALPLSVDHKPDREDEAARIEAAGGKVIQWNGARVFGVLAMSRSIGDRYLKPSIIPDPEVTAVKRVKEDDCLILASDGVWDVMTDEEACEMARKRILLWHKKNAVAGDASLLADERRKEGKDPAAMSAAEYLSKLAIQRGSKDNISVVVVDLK
# Excerpt: Activation construct: A fragment of PYL1 (one of PYR/PYL/RCAR members) (aa 33-209, also referred to as “PYLcs”) was linked to a transcriptional activation domain and a fragment of ABI1 (one of PP2C members) (aa 126-423, SEQ ID NO:2, also referred to as “ABIcs”) was linked to a DNA binding domain using recombinant DNA methods. In the constructs illustrated in FIG. 1 and FIG. 2, PYL1 (“PYLcs”) is fused to the VP16 activation domain and ABI1 (“ABIcs”) is fused to the Gal4 DNA binding domain. These two regulatory elements are linked by IRES and driven by the SV40 early promoter. Reporter constructs: Full length Luciferase is driven by Fos gene minimal promoter with 5 copies of Gal4 DNA binding sites immediately upstream of Fos promoter. GFP reporter is driven by IL2 minimal promoter with 5×Gal4 DNA binding sites upstream.
# CHO, HEK 293T, NIH 3T3, B35, MEF, and COS7 cells were cultured in Dulbecco's modified Eagle's medium (DMEM) (Gibco) with 10% FBS (Omega Scientific), 1× glutamate (Gibco), and 1× penicillin/streptomycin (Pen/Strep; Gibco). Jurkat cells were cultured in RPMI 1640 (Gibco) with 10% FBS, 1× glutamate, and 1×Pen/Strep. E14 and TC1 were cultured in Knockout DMEM (Gibco) with 7.5% ES FBS (Applied Stem Cell), 7.5% knockout SR (Gibco), 1× Hepes (Gibco), 1× sodium pyruvate (Gibco), 1×MEM NEAA (nonessential amino acids; Gibco), 1×2-mercaptoethanol (Gibco), 1× glutamate, 1×Pen/Strep, and leukemia inhibitory factor (LIF) on gelatin (Millipore)-coated plates. Cells (50,000 to 200,000) were plated in a well of a 24-well plate the day before transfection. An amount of 0.1 to 0.5 μg of DNA of each construct was mixed with 50× (v/w) Opti-MEM (Gibco), and then 3× (v/w) FuGENE HD (Roche) was added and thoroughly mixed. After incubation at room temperature for 20 min, the mixture was added to the cells and cultured for 24 to 48 hours before experiments were performed.
# Cells in 24-well plates were lysed with 100 μl of 1× Passive Lysis Buffer (Promega) at room temperature for 10 min on a shaker (˜80 rpm). Cell lysates were then spun down (16,000 g) and 10 μl of supernatant was used for luciferase assay. Luciferase substrate solution [100 μl; 5 mg of D-luciferin (BD Biosciences) and 7 mg of coenzyme A (Sigma) in 33 ml of luciferase reading buffer: 20 mM tricine, 1.07 mM (MgCO3)4Mg(OH)2.5H2O, 2.67 mM MgSO4, 0.1 mM EDTA, 33.3 mM dithiothreitol (DTT), and 0.53 mM ATP in water] was added to the cell lysates, and signal was read with a 3-s delay and 1-s integration with a Turner BioSystem Modulus microplate reader. Obtained data were analyzed by Prism 5 (GraphPad Software).
# The inducible gene activation module illustrated in FIG. 1 was introduced into a mammalian cell line (CHO, Chinese Hamster Ovary cells) along with a luciferase reporter to test the inducibility of gene activation by ABA, as shown in FIG. 2.
# To assay the ability of ABA to induce effective proximity of chimeric proteins, the ability of ABA to reconstitute protein domains was tested. In this strategy, ABA was used to induce the proximity of the yeast Gal4 DNA binding domain (Gal4 DBD) to the herpes simplex virus VP16 transactivation domain (VP16AD) (FIG. 2B). […] The VP16AD, when tethered to DNA binding domains, strongly activates transcription but cannot act without proximity to a DNA binding domain. To test gene activation by ABA-induced proximity of Gal4 DBD and VP16AD, an ABA-activator cassette was constructed by fusing Gal4 DBD to the domain of ABI1 that interacts with PYL1 (the complementary surface of ABI1, or “ABIcs”) and VP16AD to the domain of PYL1 that interacts with ABI1 (the complementary surface of PYL1, or “PYLcs”) (FIG. 2B).
# The ABA-induced domain reconstitution leading to induction of gene expression was compared to a similar system in Chinese hamster ovary (CHO) cells controlled by Rap, which has wild-type FKBP12 and Frb replacing ABIcs and PYLcs, respectively, in the chimeric proteins. […]
# [3] = E14 and CHO cells (FIG. 12D, FIG. 19)
smiles,measurement,setting,value
"CC1=CC(=O)CC(C)(C)C1(O)/C=C/C(C)=C/C(=O)O (stereo not drawn) [ABA, abscisic acid]",effect upon proliferation induced by antigen receptor signaling,[1],No statistically significant effect; also recorded: did not have an adverse effect
same,gene activation in different cell types,"[2]; 100 μM, 24 hours, CHO, NIH3T3, HEK293T, COS7, B35, Jurkat, E14, TC1, MEF",observed in all cell types tested
same,change in protein activity relative to untreated cells (factor),[2]; ABA system,> 1000
same,specificity of luciferase induction (ABA vs Rap protein pairs),"[2]; CHO and NIH 3T3 cells, 24 hours",only induced by matching small-molecule and dimerizing protein pairs
same,relative activation change compared with Rap,[2]; CHO cells,comparable
same,reversibility of luciferase transcription upon removal,"[2]; CHO cells, 100 μM for 24 hours then ABA-free media",fully reversible
same,dose response of transactivation,"[2]; CHO cells, 24 hours",large linear range
same,time for gene activation to reverse to background after withdrawal,"[2]; CHO cells, induced 24 hours, washed five times with fresh medium",≤ 24 h
same,time at which activation of luciferase was first observed after addition,[2]; [3],1.5 h
same,time to reach maximum luciferase activation,[2]; [3],≤ 24 h
same,relative activation change compared with Rap,[2]; E14 cells,much higher
same,luciferase production induced,"[2]; murine embryonic stem (ES) cells, NIH 3T3 and HEK 293T cells, 24 hours",more than three orders of magnitude
